The text below walks through data of PubChem BioAssay AID2197 (Vanderbilt High Throughput Screening Facility, 2009).

SMILES strings stand for the structures. Activity calls are given as the source filed them. The rule behind the calls is not given here.

For the first assay, the target named is Metabotropic glutamate receptor 4 (Homo sapiens) (UniProt Q14833). The assay is described as follows: PubChem AID 2197. The conditions noted are these: CHO hmGluR4/Gqi5 calcium mobilization, PAM potency. A general note: Calcium flux is commonly read through the fluorescence of an indicator in the cells.
Chain of Metabotropic glutamate receptor 4 (Homo sapiens) (Q14833 whole entry, looked up): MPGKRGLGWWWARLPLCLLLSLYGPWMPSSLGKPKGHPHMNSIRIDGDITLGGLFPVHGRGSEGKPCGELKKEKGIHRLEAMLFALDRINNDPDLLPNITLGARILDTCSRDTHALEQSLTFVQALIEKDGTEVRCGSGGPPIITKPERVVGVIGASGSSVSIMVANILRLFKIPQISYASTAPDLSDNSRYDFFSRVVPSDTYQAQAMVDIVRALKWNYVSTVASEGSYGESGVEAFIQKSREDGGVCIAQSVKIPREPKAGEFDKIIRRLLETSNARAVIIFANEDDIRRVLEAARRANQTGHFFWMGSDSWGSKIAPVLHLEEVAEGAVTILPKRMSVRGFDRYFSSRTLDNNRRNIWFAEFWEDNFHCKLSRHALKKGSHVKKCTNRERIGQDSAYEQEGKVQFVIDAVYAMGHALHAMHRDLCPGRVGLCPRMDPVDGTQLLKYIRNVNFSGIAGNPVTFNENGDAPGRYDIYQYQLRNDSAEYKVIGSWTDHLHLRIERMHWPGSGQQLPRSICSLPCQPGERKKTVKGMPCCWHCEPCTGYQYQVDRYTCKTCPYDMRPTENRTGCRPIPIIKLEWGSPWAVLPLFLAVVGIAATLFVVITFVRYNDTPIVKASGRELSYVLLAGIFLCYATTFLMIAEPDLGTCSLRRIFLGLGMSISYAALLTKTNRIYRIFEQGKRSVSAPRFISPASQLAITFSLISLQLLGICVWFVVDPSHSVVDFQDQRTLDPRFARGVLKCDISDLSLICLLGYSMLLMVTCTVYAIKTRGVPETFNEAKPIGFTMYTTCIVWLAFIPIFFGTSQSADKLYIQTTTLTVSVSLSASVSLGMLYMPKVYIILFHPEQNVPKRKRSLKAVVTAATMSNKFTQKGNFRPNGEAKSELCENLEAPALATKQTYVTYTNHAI
As for `O=C(Nc1ccc(F)c(C(F)(F)F)c1)c1ccccn1`, the EC50 is 1530 nM.
For `O=C(Nc1ccc(Cl)c(Cl)c1)c1ccncn1`, the EC50 is 2840 nM.
Still for that read-out and setting: the same measure for `O=C(Nc1ccc(Cl)c(Cl)c1)c1ccccn1`: 1370 nM.
Consider `COc1ccc(NC(=O)c2ccccn2)cc1Cl`, for which the EC50 is 1050 nM.
On to `O=C(Nc1ccc(Cl)c(C(F)(F)F)c1)c1ccccn1`, for which the EC50 was 2050 nM.
As to `COc1cc(NC(=O)c2ccccn2)ccc1C`, the EC50 was 562 nM.
Turning to `COc1cc(NC(=O)c2ccccn2)ccc1F`, the EC50 is 776 nM.
On the same count and under the same terms, the same measure for `O=C(Nc1cccc(Cl)c1)c1ccccn1`: 1090 nM.

Still in this assay, the particulars now being: CHO hmGluR4/Gqi5 calcium mobilization, PAM potency; at 30.1 µM (top of the series).
On to `COc1cc(NC(=O)c2ccccn2)ncn1`, for which the “% glutamate max response” value was “inactive”.
As for `O=C(Nc1ccc(N2CCCS2(=O)=O)cc1)c1ccccn1`, the “% glutamate max response” value was “inactive”.
Same read-out and setting: the result for `O=C(Nc1cccc(C(F)(F)F)n1)c1ccccn1` reads “inactive”.

Usually EC50 stands for the concentration giving half of the maximal effect.
